# Measurements published in paper PMC3285689, “Structure Based Design and Synthesis of Peptide Inhibitor of Human LOX-12: In Vitro and In Vivo Analysis of a Novel Therapeutic Agent for Breast Cancer” (PLoS ONE, 2012).
# Several values for one entry are separate records, joined by “and”; a condition that tells them apart may be missing. Equal entries are not always repeated. Entries after “also recorded” stand apart in the source; their conditions may differ. Where two headings read alike, the source gives them in different places. Where a SMILES comes first, the peptide text is derived from it.
# T1: human LOX-12 (human) (UniProt P18054)
# T1 sequence: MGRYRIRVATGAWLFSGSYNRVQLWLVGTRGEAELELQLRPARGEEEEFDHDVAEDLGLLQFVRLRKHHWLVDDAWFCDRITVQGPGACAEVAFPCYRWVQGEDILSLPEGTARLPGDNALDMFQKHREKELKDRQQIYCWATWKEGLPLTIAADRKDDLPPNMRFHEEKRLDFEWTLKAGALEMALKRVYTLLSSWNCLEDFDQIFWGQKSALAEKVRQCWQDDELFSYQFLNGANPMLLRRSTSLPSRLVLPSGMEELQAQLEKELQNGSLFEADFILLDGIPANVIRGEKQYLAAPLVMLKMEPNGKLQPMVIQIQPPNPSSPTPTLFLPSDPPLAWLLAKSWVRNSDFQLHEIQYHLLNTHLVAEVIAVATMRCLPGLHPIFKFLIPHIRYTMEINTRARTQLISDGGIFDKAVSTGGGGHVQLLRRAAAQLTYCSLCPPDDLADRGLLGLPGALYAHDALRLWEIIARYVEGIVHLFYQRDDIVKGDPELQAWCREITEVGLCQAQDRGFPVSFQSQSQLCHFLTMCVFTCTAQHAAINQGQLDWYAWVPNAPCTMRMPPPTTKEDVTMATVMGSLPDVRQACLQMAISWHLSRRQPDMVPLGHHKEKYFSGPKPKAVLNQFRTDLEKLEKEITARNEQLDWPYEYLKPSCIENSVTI
# T2: LOX-12 (Homo sapiens, UniProt P18054)
# T2 construct: made in house; host or cells: E. coli BL21 codon+ (pET28a)
# T2 sequence (P18054 1-663): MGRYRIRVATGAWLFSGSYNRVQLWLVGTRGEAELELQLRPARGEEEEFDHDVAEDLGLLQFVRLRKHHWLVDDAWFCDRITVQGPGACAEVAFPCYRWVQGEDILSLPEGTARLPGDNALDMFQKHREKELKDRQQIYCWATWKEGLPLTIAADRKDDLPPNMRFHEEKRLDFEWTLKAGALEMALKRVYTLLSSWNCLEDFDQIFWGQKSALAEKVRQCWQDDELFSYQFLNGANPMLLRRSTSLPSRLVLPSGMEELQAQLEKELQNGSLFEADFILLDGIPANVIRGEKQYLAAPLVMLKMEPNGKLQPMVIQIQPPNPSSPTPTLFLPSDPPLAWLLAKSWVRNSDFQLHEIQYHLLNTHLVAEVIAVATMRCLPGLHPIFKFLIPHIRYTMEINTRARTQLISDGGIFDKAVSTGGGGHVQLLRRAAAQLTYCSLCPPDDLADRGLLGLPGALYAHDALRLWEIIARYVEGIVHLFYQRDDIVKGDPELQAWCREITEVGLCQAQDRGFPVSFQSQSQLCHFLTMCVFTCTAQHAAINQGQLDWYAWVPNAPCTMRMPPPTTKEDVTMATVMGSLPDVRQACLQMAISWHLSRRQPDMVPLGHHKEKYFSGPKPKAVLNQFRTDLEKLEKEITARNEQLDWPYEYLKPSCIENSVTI
# Assays:
# human LOX-12 (human) [1] = biological target: T1, human LOX-12 (human)
# LOX-12 [2] = biological target: T2, LOX-12; assay: Inhibition of human LOX-12 activity, spectrophotometric screen; format: biochemical; settings: LOX-12 incubated with peptide 30 min; arachidonic acid, 0.2% Tween-20, 50 mM potassium phosphate pH 7.2; absorbance 269 nm; average of triplicates; inhibitor concentration not given
# Description: For inhibition study, the human LOX-12 was incubated with peptide for 30 min, which was then added to the reaction buffer containing arachidonic acid (substrate), 0.2% Tween-20, 50 mM potassium phosphate buffer pH 7.2. The change in absorbance was monitored at 269 nm and the percentage of inhibition was calculated. A control reaction was always carried out without any peptide inhibitor to ensure the activity of protein under experimental conditions.
# The activity assay for LOX-12 in presence of 10 different peptides with substrate was performed by using spectrophotometer. The assay was performed at 269 nm which gives the absorption maxima for the product LTB4.
# MDA-MB-231 cells = assay: Annexin-V binding apoptosis assay by flow cytometry, MDA-MB-231; format: cell-based, human; settings: 72 h, annexin-V/PI flow cytometry
# LOX-12 [3] = biological target: T2, LOX-12; assay: SPR binding of peptides to immobilized His-LOX-12 (BIAcore 2000); settings: His-LOX-12 on Ni2+-NTA chip, analyte 25, 50, 75 µM, flow 10 µl/min, BIA evaluation 3.0, read-out: Dissociation constant KD
# MCF-7 = settings: MCF-7, MTT, 72 h
# Description: (§1) Cytotoxic effect of LOX-12 inhibitory peptides was analyzed on MCF-7 (ER+) and MDA-MB-231 (ER+) breast cancer cell lines by MTT [3-(4, 5-dimethylthiazol-2-yl)-2, 5-diphenyltetrazolium bromide] dye reduction assay. Briefly, 3×10^3 cells/100 µl media were seeded in 96-well plates 24 h before the experiment. The cells were then incubated with different concentrations of the peptides for 24, 48 and 72 h as indicated. The cells were treated with DMSO (same concentration as used to solubilise the peptide) which was then subtracted from all the cytotoxic values.10 µl/well MTT-solution (10 mg/ml in PBS) was then added and plates were further incubated for 3 h at 37°C. The formazan crystals formed were dissolved by adding 100 µl/well of dimethyl sulfoxide (DMSO). Absorbance was measured by a microplate reader at 570 nm with a reference filter 650 nm. 100 µl of medium with 10 µl of MTT stock-solution and 100 µl of DMSO was used as a blank solution to correct the background. The data obtained was presented as percentage viability in the best-fit (linear) dose response curve. The IC50 values at 95% confidence intervals was calculated for all cell lines. Each concentration was used in triplicate. The peptide AIRS was used as a negative control.
# (§2) MCF-7 cells were treated with 0–150 µM (0.05% DMSO as a vehicle control) and MDA-MB-231 was treated with 0–500 µM (0.05% DMSO as a vehicle control) of the LOX-12 inhibitory peptides for 24, 48 and 72 h to perform the cytotoxic activity.
# MCF-7 cells = assay: Annexin-V binding apoptosis assay by flow cytometry, MCF-7; format: cell-based, human; settings: 72 h, annexin-V/PI flow cytometry
# Description: The frequency of apoptosis in MCF7 cells and MDA-MB-231 by the treatment with YWCS was assayed by annexin-V binding assay. Briefly, MCF7 cells and MDA-MB-231 were pulsed with the peptide for 72 h. After termination of the culture, cells were stained with annexin-V apoptosis detection kit (Biolegend) according to the manufacturer's instructions. The cells were washed twice with PBS, and resuspended in annexin-V binding buffer. To the cell suspension, 5 µl of FITC-conjugated annexin-V (Biolegend) and 10 µl of propidium iodide (PI) (50 µg/ml) solution were added and further incubated for 15 min at room temperature. About 10,000 events were acquired in FACS Canto flow cytometer (Becton–Dickinson, USA). The frequency of annexin-positive (apoptotic) cells was determined using BD FACSDiva software.
# The apoptotic activity of the peptide YWCS was performed using annexin-V binding assay. Apoptosis induction was observed as early as 72 h.
# [4] = tested on: Ehrlich's Ascites Tumor cell line (EAT) (murine breast carcinoma); assay: Antitumor activity in Swiss albino mice implanted with EAT tumor cell line; format: in vivo
# Description: In-vivo animal experimentation of peptide for anticancer activity was done using mice model. Swiss albino mice were obtained from Central animal facility, AIIMS at 55–65 days of age. The animals were housed in polycarbonated cages, bedded with husk. The animal facility was environmentally controlled; mice were maintained at normal room temperature with suitable relative humidity and 12 h light, 12 h dark cycle. Animals were fed chow food and purified water ad libitum throughout the study. Animals were randomized into 5mice per cage in 3 groups (Group I, II and III) for the study.
# Ehrlich's Ascites Tumor cell line (EAT) (murine breast carcinoma), was used for tumor induction. The cell line was maintained in-vivo by passaging weekly intraperitonealy (i.p) from mice to mice. For tumor induction, 14 million cells approximately 150 µl volumes was injected to the animal in a group subcutaneously on the dorsal side of the body (back) and kept under observation for tumor onset.
# Tumor size was recorded by vernier calipers and tumor volume was calculated using the formula: V = 0.5×L×W^2, where L is the length (long axis) and W is the width (short axis).
# In Group I (control, untreated) only tumor cell line was administered. In group II, YWCS peptide was administered when the tumor volume reached 0.22±0.10 cm^3 on day 10, at a dose of […] intravenously (i.v) per mouse once daily for 20 days from day 11 to day 30. In group III, same concentration of peptide was injected intravenously (i.v) simultaneously after injecting tumor cells subcutaneously on day one. During experimental period mice were under observation till sacrificed.
# LOX-12 [5] = biological target: T2, LOX-12; assay: Kinetic assay of LOX-12 inhibition (Michaelis-Menten, competitive Ki); format: biochemical
# Description: For kinetic assay, the above experiment was done with four different concentrations of peptides (25–100 µM). For each concentration of peptide the experiment was repeated with six different concentrations (20–120 µM) of substrate, arachidonic acid. The enzyme concentration was constant (1.0 µM) throughout the assay. The competitive kinetic constant (Ki) was calculated graphically using the Michaelis-Menton equation in graphpad prism software. The graph of activity vs. concentration of arachidonic acid was plotted.
# Competitive kinetic constant of the best peptide YWCS was calculated using graphpad prism software.
# human red blood cells = assay: Hemolysis of human red blood cells; format: cell-based; settings: concentration upto 358 µM; hRBC 1% (v/v) in PBS pH 7.0, 1 h at 37°C, absorbance 541 nm, triplicate
# Description: The effect of peptide on hemolysis was determined by using human red blood cells (hRBC from volunteer). The freshly collected hRBC were centrifuged for 10 mins to remove the buffy coat and washed with phosphate buffered saline (PBS: 35 mM Na2HPO4, pH 7.0 and 150 mM NaCl). 100 µl of the hRBC (suspended in 1% (v/v) in PBS) and 10 µl peptide solution were added into the sterile 96 well plates in triplicate. The plates were incubated for 1 h at 37°C and centrifuged at 1000× g for 5 mins. The supernatant were transferred to fresh 96 well plates, where hemoglobin released was monitored by measuring the absorbance spectrophotometrically at 541 nm. Similar steps were carried out for Gentamycin, as a control. The percentage of hemolysis (determined in PBS and 0.1% Triton X-100) was calculated from the standard graph which was plotted with % hemolysis of prepared RBCs vs optical densities.
# The haemolytic activity of the peptide was determined to ensure the toxicity to erythrocytes using human RBCs. The concentration upto 358 µM of the peptide lysed only 22% human erythrocytes ( Figure 2 ).
# MDA-MB-231 = settings: 72 h; for percentage of cell viability: MDA-MB-231, MTT
# Description: as §1, §2
# human LOX-12 (human) [6] = biological target: T1, human LOX-12 (human); remark: listed apart in the source
# human LOX-12 (human) [7] = biological target: T1, human LOX-12 (human); assay: enzyme inhibition kinetics (spectrophotometric); 1.0 µM LOX-12 incubated with peptide (25-100 µM) for 30 min; arachidonic acid 20-120 µM, 0.2% Tween-20, 50 mM potassium phosphate pH 7.2; absorbance at 269 nm; competitive Ki from the Michaelis-Menten equation (GraphPad Prism)
molecule,measurement,setting,value
YWG (peptide),"% inhibition of LOX-12 enzyme activity (arachidonic acid substrate, absorbance at 269 nm)",human LOX-12 (human) [1],71.6%
N[C@@H](Cc1ccc(O)cc1)C(=O)N[C@@H](Cc1c[nH]c2ccccc12)C(=O)N[C@@H](CS)C(=O)N[C@@H](CO)C(=O)O [YWCS] (H-YWCS-OH),% inhibition,LOX-12 [2],86.1%
same,mean percentage apoptotic cells,"MDA-MB-231 cells; MDA-MB-231, 350 µM",15.0±1.2%
same,mean percentage apoptotic cells,"MDA-MB-231 cells; MDA-MB-231, 400 µM",20.8% and 20.8±3.2%
same,mean percentage apoptotic cells,"MDA-MB-231 cells; MDA-MB-231, 450 µM",22.1±1.5%
same,Kd,LOX-12 [3],0.0339 µM
same,percentage cell viability,MCF-7; 25 µM,88.6%
same,percentage cell viability,MCF-7; 50 µM,85.7%
same,percentage cell viability,MCF-7; 100 µM,31.2%
same,percentage cell viability,MCF-7; 150 µM,21.1%
same,IC50,"MCF-7; read-out: IC50 (cell viability), triplicate",75 µM
same,mean percentage apoptotic cells,"MCF-7 cells; MCF-7, 50 µM",41.2±5.8%
same,mean percentage apoptotic cells,"MCF-7 cells; MCF-7, 75 µM",49.8% and 49.8±6.5%
same,mean percentage apoptotic cells,"MCF-7 cells; MCF-7, 100 µM",58.3±7.5%
same,"Tumor volume, Day 20","[4]; Group II, 200 µmol i.v. per mouse once daily from day 11 to day 30, control 2.09±0.06",1.62±0.49 cm^3
same,"Tumor volume, Day 30","[4]; Group II, 200 µmol i.v. per mouse once daily from day 11 to day 30, control 4.5±0.24",3.04±1.06 cm^3
same,Size of liver and spleen in sacrificed animals,"[4]; Group II, peptide treated for 20 days, control Group I showed the same",liver and spleen enlargement
same,"Tumor volume, Day 20","[4]; Group III, 200 µmol peptide i.v. simultaneously after injecting EAT cells s.c. on day one",No tumor was observed; also recorded: No tumor onset
same,Mode of inhibition,"LOX-12 [5]; linearised analysis of Michaelis-Menten data, in presence of substrate arachidonic acid",competitive mode of inhibition
same,Ki,"LOX-12 [5]; peptide 25-100 µM, arachidonic acid 20-120 µM, enzyme 1.0 µM, Michaelis-Menten fit in graphpad prism, read-out: Competitive kinetic constant Ki",7.25 µM
same,Percentage of hemolysis of human erythrocytes,human red blood cells,22%
same,IC50,MDA-MB-231,400 µM
same,percentage of cell viability,MDA-MB-231; 50 µM,92%
same,percentage of cell viability,MDA-MB-231; 100 µM,87.46%
same,percentage of cell viability,MDA-MB-231; 150 µM,80.36%
same,percentage of cell viability,MDA-MB-231; 200 µM,72.51%
same,percentage of cell viability,MDA-MB-231; 350 µM,54.76%
same,percentage of cell viability,MDA-MB-231; 400 µM,48.19%
same,percentage of cell viability,MDA-MB-231; 500 µM,43.07%
WKS (peptide),"% inhibition of LOX-12 enzyme activity (arachidonic acid substrate, absorbance at 269 nm)",human LOX-12 (human) [1],53.2%
FWY (peptide),"% inhibition of LOX-12 enzyme activity (arachidonic acid substrate, absorbance at 269 nm)",human LOX-12 (human) [1],80.4%
FYS (peptide),"% inhibition of LOX-12 enzyme activity (arachidonic acid substrate, absorbance at 269 nm)",human LOX-12 (human) [1],79.8%
WFC (peptide),"% inhibition of LOX-12 enzyme activity (arachidonic acid substrate, absorbance at 269 nm)",human LOX-12 (human) [1],72.1%
FWCS,% inhibition,LOX-12 [2],74.2%
"O=c1cc(-c2ccccc2)oc2cc(O)c(O)c(O)c12 [Baicalein, reference compound]",% inhibition,LOX-12 [2],85.1%
AIYW,% inhibition,LOX-12 [2],69.3%
YW (peptide),"% inhibition of LOX-12 enzyme activity (arachidonic acid substrate, absorbance at 269 nm)",human LOX-12 (human) [1],73.2%
WFA (peptide),"% inhibition of LOX-12 enzyme activity (arachidonic acid substrate, absorbance at 269 nm)",human LOX-12 (human) [1],73.5%
FWCS,"% inhibition of LOX-12 enzyme activity (arachidonic acid substrate, absorbance at 269 nm)",human LOX-12 (human) [1],74.2%
AIYW,"% inhibition of LOX-12 enzyme activity (arachidonic acid substrate, absorbance at 269 nm)",human LOX-12 (human) [1],69.3%
YWCS,"% inhibition of LOX-12 enzyme activity (arachidonic acid substrate, absorbance at 269 nm)",human LOX-12 (human) [1],86.1%
same,"% inhibition of LOX-12 enzyme activity (arachidonic acid substrate, absorbance at 269 nm)",human LOX-12 (human) [6],80%
same,Ki,human LOX-12 (human) [7],7.25 µM
